Read-outs that look alike come from different tables or passages of the source. Starred links: 1 amine or outer side, 2 acyl side, 3 side chain; linkers in the order of their positions; H or OH if unused. Positions of bridges follow the written chain, without caps; N, C: chain ends. Residues, ends and D or L forms follow the SMILES beside them. Chains are numbered I, II in the order given. X2 = O=C(CCCC(=O)NCCOCCOCCOCCOCCOCCOCCOCCOCCOCCOCCOCCOCCOCCOCCOCCOCCOCCOCCOCCOCCOCCOCCOCCn1cc(CCC(=O)[*:2])nn1)NCCOCCOCCOCCOCCOCCOCCOCCOCCOCCOCCOCCOCCOCCOCCOCCOCCOCCOCCOCCOCCOCCOCCOCCn1cc(CCC(=O)[*:1])nn1; TATA = O=C(CC[*:1])N1CN(C(=O)CC[*:2])CN(C(=O)CC[*:3])C1
Tests used:
human P-Selectin protein = target: T1, human P-Selectin protein (Homo sapiens, UniProt P16109); experiment: SPR binding assay (Biacore); conditions: recombinant biotinylated human P-Selectin, 25° C.
T1 sequence (P16109 42-830): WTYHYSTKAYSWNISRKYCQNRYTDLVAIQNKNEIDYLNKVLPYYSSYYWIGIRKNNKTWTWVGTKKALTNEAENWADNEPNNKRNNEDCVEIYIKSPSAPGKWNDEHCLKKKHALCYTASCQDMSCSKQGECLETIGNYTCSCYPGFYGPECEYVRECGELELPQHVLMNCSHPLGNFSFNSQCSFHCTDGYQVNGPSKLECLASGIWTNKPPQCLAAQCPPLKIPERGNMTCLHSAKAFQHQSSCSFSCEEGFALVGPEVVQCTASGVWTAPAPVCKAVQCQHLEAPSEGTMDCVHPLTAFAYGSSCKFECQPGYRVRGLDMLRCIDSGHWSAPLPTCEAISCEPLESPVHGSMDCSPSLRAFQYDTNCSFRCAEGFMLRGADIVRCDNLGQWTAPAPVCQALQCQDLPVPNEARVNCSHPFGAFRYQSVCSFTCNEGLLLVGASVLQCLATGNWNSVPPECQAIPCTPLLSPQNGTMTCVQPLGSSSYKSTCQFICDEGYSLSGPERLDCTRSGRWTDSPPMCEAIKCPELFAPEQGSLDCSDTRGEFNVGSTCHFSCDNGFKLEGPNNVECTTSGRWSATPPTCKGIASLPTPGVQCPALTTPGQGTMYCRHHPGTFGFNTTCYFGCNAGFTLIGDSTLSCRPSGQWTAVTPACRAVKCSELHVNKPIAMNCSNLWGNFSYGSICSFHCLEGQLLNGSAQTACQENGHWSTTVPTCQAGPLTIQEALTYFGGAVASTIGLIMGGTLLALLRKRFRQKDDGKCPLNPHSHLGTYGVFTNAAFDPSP
Procedure: Biacore experiments were performed to determine ka (M−1s−1), kd (s−1), KD (nM) values of monomeric peptides binding to human Selectin proteins. Recombinant biotinylated human P-Selectin protein was used. For analysis of binding, either a Biacore 3000 or 5200 instrument was used with a CMS sensor chip (GE Healthcare). For sensor chip surface preparation, streptavidin was immobilized on the chip using standard amine-coupling chemistry at 25° C. with HBS-N (10 mM HEPES, 0.15 M NaCl, pH 7.4) as the running buffer. The carboxymethyl dextran surface was activated with a 12 min injection of a 1:1 ratio of 0.4 M 1-ethyl-3-(3-dim ethyl aminopropyl) carbodiimide hydrochloride (EDC)/0.1 M N-hydroxy succinimide (NHS) at a flow rate of 10 μl/min. For capture of streptavidin, protein was diluted to 0.2 mg/ml in 10 mM sodium acetate (pH 4.5) and captured by injecting 70 μl onto the activated chip surface. Residual activated groups were blocked with a 7 min injection of 1 M ethanolamine (pH 8.5). Biotinylated protein stock was diluted 1:100 in HBS-N and captured on one flow cell at 5 μl/min to a level of 1000-1500 RU. Buffer was changed to PBS/0.05% Tween 20 and a dilution series of the peptides was prepared in this buffer with a final DMSO concentration of 0.5%. The top concentration of the analyte varied from 200 nM to 50 μM; depending on predicted affinity of the interaction. In all cases a titration was performed with either seven 2-fold dilutions or five 3-fold dilutions. The SPR analysis was run at 25° C. with a flow rate of 50-80 μl/min with 60 seconds association and a suitable disassociation period (100-900 seconds). Data were corrected for DMSO excluded volume effects. All data were double-referenced for blank injections and reference surface using standard processing procedures and data processing and kinetic fitting were performed using Scrubber software, version 2.0c (BioLogic Software). Data were fitted using mass transport model allowing for mass transport effects where appropriate.

[1] = target: T2, P-Selectin:PSGL1 interaction (Homo sapiens, UniProt P16109); experiment: Receptor ligand inhibition assay (P-Selectin binding to HL-60 cells); type: cell-based
T2 construct: host or cells: HL-60 cells (ATCC, CCL-240) supply the PSGL-1 partner endogenously
T2 sequence (P16109 42-771 limits assumed): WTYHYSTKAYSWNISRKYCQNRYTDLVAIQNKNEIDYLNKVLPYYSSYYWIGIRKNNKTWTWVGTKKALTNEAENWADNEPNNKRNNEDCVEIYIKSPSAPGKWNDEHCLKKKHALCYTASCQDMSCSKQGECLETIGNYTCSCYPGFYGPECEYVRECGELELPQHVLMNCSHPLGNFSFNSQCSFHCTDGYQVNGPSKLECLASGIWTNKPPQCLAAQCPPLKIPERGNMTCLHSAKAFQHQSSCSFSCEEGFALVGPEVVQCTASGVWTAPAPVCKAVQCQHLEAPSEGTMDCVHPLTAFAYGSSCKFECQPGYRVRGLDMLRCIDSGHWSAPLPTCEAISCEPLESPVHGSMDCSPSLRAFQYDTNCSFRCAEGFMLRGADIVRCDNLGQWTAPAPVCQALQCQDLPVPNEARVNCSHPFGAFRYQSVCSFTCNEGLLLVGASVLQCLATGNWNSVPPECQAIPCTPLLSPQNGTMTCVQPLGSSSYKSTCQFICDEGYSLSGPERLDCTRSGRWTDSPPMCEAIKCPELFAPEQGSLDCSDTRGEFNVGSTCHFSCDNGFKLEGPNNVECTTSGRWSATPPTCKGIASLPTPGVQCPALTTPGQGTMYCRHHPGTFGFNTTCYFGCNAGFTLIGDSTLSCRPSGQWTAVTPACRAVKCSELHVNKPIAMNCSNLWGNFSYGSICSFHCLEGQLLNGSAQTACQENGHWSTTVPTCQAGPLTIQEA
Procedure: Bicycle test samples, SelG1 (Crizanlizumab) were serially diluted maintaining 0.5% DMSO in assay buffer (25 mM HEPES, 121 mM NaCl, 5.4 mM KCl, 0.8 mM MgCl2, 1.8 mM CaCl2), 6 mM […], 5.5 mM glucose, 1% BSA, pH7.4) and transferred to 384 well clear bottom plates (Corning, 3712) with a final volume of 6 μL. […], of P-Selectin in imaging buffer (25 mM HEPES, 121 mM NaCl, 5.4 mM KCl, 0.8 mM MgCl2, 1.8 mM CaCl2), 6 mM […], 5.5 mM glucose, pH7.4) was added to give a 5 nM final concentration and incubated at room temperature for 15 minutes. HL-60 cells (ATCC, CCL-240) mixed with 1 μg/mL far red labelled wheat germ agglutinin (WGA, ThermoFisher W21404) and 1 μg/mL AlexaFluor 488-streptavidin (Invitrogen S11223) were added to the plate and incubated for 2 hours at room temperature in the absence of light. Staining and antibody binding were quantified by simultaneously scanning the microplates with 488 nm and 640 nm lasers on a mirrorball microplate cytometer, AF488 on FL2 triggering on AF647-WGA on FL4. Data was analysed in Dotmatics, using a four parameter logistic fit to generate IC50 values and % response. Percent inhibition was calculated using 100−% response at top concentration.

Kd (human P-Selectin protein; read-out: Affinity KD determined by SPR) [nM]	SMILES	Kd (human P-Selectin protein; Affinity KD determined by SPR) [nM]	IC50 [1] [nM]	Inhibition at top concentration ([1]; 100−% response at top concentration, geomean of n=3) [%]
–	CC(C)C[C@@H]1NC(=O)[C@H](CO)NC(=O)[C@@H]2CCCN2C(=O)[C@H](C(C)C)NC(=O)[C@H](CC(=O)O)NC(=O)[C@@H]2CSCC(=O)N3CCN(CCN(CC3)C(=O)CSC[C@@H](C(=O)N[C@@H](C)C(=O)N[C@@H](CCCCNC(=O)CCc3cn(CCOCCOCCOCCOCCOCCOCCOCCOCCOCCOCCOCCOCCOCCOCCOCCOCCOCCOCCOCCOCCOCCOCCOCCNC(=O)CCOCC(COCCC(=O)NCCOCCOCCOCCOCCOCCOCCOCCOCCOCCOCCOCCOCCOCCOCCOCCOCCOCCOCCOCCOCCOCCOCCOCCn4cc(CCC(=O)NCCCC[C@H](NC(=O)[C@H](C)NC(=O)[C@@H]5CSCC(=O)N6CCN7CCN(CC6)C(=O)CSC[C@H](NC(=O)[C@H](Cc6cccc8ccccc68)NC(=O)[C@H](CC(=O)O)NC(=O)[C@H](C)NC(=O)[C@H](CC(=O)O)NC(=O)[C@@H](NC(=O)[C@H](C)N)CSCC7=O)C(=O)N[C@@H](CC(=O)O)C(=O)N[C@@H](C(C)C)C(=O)N6CCC[C@H]6C(=O)N[C@@H](CO)C(=O)N[C@@H](CC(C)C)C(=O)N6CCC[C@H]6C(=O)N5)C(N)=O)nn4)(COCCC(=O)NCCOCCOCCOCCOCCOCCOCCOCCOCCOCCOCCOCCOCCOCCOCCOCCOCCOCCOCCOCCOCCOCCOCCOCCn4cc(CCC(=O)NCCCC[C@H](NC(=O)[C@H](C)NC(=O)[C@@H]5CSCC(=O)N6CCN7CCN(CC6)C(=O)CSC[C@H](NC(=O)[C@H](Cc6cccc8ccccc68)NC(=O)[C@H](CC(=O)O)NC(=O)[C@H](C)NC(=O)[C@H](CC(=O)O)NC(=O)[C@@H](NC(=O)[C@H](C)N)CSCC7=O)C(=O)N[C@@H](CC(=O)O)C(=O)N[C@@H](C(C)C)C(=O)N6CCC[C@H]6C(=O)N[C@@H](CO)C(=O)N[C@@H](CC(C)C)C(=O)N6CCC[C@H]6C(=O)N5)C(N)=O)nn4)COCCC(=O)NCCOCCOCCOCCOCCOCCOCCOCCOCCOCCOCCOCCOCCOCCOCCOCCOCCOCCOCCOCCOCCOCCOCCOCCn4cc(CCC(=O)NCCCC[C@H](NC(=O)[C@H](C)NC(=O)[C@@H]5CSCC(=O)N6CCN7CCN(CC6)C(=O)CSC[C@H](NC(=O)[C@H](Cc6cccc8ccccc68)NC(=O)[C@H](CC(=O)O)NC(=O)[C@H](C)NC(=O)[C@H](CC(=O)O)NC(=O)[C@@H](NC(=O)[C@H](C)N)CSCC7=O)C(=O)N[C@@H](CC(=O)O)C(=O)N[C@@H](C(C)C)C(=O)N6CCC[C@H]6C(=O)N[C@@H](CO)C(=O)N[C@@H](CC(C)C)C(=O)N6CCC[C@H]6C(=O)N5)C(N)=O)nn4)nn3)C(N)=O)NC(=O)[C@@H]3CCCN3C1=O)C(=O)CSC[C@H](NC(=O)[C@H](C)N)C(=O)N[C@@H](CC(=O)O)C(=O)N[C@@H](C)C(=O)N[C@@H](CC(=O)O)C(=O)N[C@@H](Cc1cccc3ccccc13)C(=O)N2 [BCY12262]	0.017	3.29	68
–	CSCC[C@@H]1NC(=O)[C@H](Cc2ccc(O)cc2)NC(=O)[C@@H](NC(=O)[C@H](C)NC(C)=O)CSCCC(=O)N2CN3CN(C2)C(=O)CCSC[C@H](NC(=O)[C@H](Cc2c[nH]c4ccccc24)NC(=O)[C@H](CCC(=O)O)NC1=O)C(=O)N[C@@H](CC(=O)O)C(=O)N[C@@H](C(C)C)C(=O)N[C@@H]([C@@H](C)O)C(=O)N[C@@H](CC(=O)O)C(=O)N[C@@H](Cc1ccc(O)cc1)C(=O)NCC(=O)N[C@H](C(=O)N[C@@H](CCCCNC(=O)CCc1cn(CCOCCOCCOCCOCCOCCOCCOCCOCCOCCOCCOCCOCCOCCOCCOCCOCCOCCOCCOCCOCCOCCOCCOCCNC(=O)CCCC(=O)NCCOCCOCCOCCOCCOCCOCCOCCOCCOCCOCCOCCOCCOCCOCCOCCOCCOCCOCCOCCOCCOCCOCCOCCn2cc(CCC(=O)NCCCC[C@H](NC(=O)[C@@H]4CSCCC(=O)N5CN6CN(C5)C(=O)CCSC[C@H](NC(=O)[C@H](Cc5c[nH]c7ccccc57)NC(=O)[C@H](CCC(=O)O)NC(=O)[C@H](CCSC)NC(=O)[C@H](Cc5ccc(O)cc5)NC(=O)[C@@H](NC(=O)[C@H](C)NC(C)=O)CSCCC6=O)C(=O)N[C@@H](CC(=O)O)C(=O)N[C@@H](C(C)C)C(=O)N[C@@H]([C@@H](C)O)C(=O)N[C@@H](CC(=O)O)C(=O)N[C@@H](Cc5ccc(O)cc5)C(=O)NCC(=O)N4)C(N)=O)nn2)nn1)C(N)=O)CSCCC3=O [BCY5457] (I: Ac-ACYMEWCDVTDYGCK-NH2 / II: Ac-ACYMEWCDVTDYGCK-NH2; linker I:2-I:7-I:14, II:2-II:7-II:14 via TATA; linker I:15-II:15 via X2)	969	–	–
400	CSCC[C@@H]1NC(=O)[C@H](Cc2ccc(O)cc2)NC(=O)[C@@H](NC(=O)[C@H](C)NC(=O)CCc2cn(CCOCCOCCOCCOCCOCCOCCOCCOCCOCCOCCNC(=O)CCCC(=O)NCCOCCOCCOCCOCCOCCOCCOCCOCCOCCOCCn3cc(CCC(=O)N[C@@H](C)C(=O)N[C@H]4CSCCC(=O)N5CN6CN(C5)C(=O)CCSC[C@H](NC(=O)[C@H](Cc5c[nH]c7ccccc57)NC(=O)[C@H](CCC(=O)O)NC(=O)[C@H](CCSC)NC(=O)[C@H](Cc5ccc(O)cc5)NC4=O)C(=O)N[C@@H](CC(=O)O)C(=O)N[C@@H](C(C)C)C(=O)N[C@@H]([C@@H](C)O)C(=O)N[C@@H](CC(=O)O)C(=O)N[C@@H](Cc4ccc(O)cc4)C(=O)NCC(=O)N[C@H](C(=O)N[C@@H](C)C(N)=O)CSCCC6=O)nn3)nn2)CSCCC(=O)N2CN3CN(C2)C(=O)CCSC[C@H](NC(=O)[C@H](Cc2c[nH]c4ccccc24)NC(=O)[C@H](CCC(=O)O)NC1=O)C(=O)N[C@@H](CC(=O)O)C(=O)N[C@@H](C(C)C)C(=O)N[C@@H]([C@@H](C)O)C(=O)N[C@@H](CC(=O)O)C(=O)N[C@@H](Cc1ccc(O)cc1)C(=O)NCC(=O)N[C@H](C(=O)N[C@@H](C)C(N)=O)CSCCC3=O [BCY5454]	–	–	–
